Data published in the kinase profiling compilation of Christmann-Franck et al. (2016).

Assays:
Assay in all cases: KINOMEscan competition binding
[1] = target: CDK4 CCND1 (human) (UniProt P11802+P24385); conditions: compound 1.0 µM
[2] = target: CDK4 CCND3 (human) (UniProt P11802+P30281); conditions: compound 1.0 µM
[3] = test system: CPK1 (P.falciparum); conditions: compound 1.0 µM
[4] = test system: FLT3 (human), P36888 [ITD]; conditions: compound 1.0 µM
[5] = target: MAP2K5 (human) (UniProt Q13163)
[6] = target: MAP3K1 (human) (UniProt Q13233)
[7] = target: PDGFRB (human) (UniProt P09619)
[8] = target: PKN3 (M.tuberculosis) (UniProt Q6P5Z2); conditions: compound 1.0 µM
[9] = target: RET (human) (UniProt P07949)
[10] = target: RIPK2 (human) (UniProt O43353)
[11] = target: RPS6KA6 KD2 (human) (UniProt Q9UK32)
[12] = target: STK16 (human) (UniProt O75716)
Sequence of STK16 (human) (O75716 whole entry, looked up): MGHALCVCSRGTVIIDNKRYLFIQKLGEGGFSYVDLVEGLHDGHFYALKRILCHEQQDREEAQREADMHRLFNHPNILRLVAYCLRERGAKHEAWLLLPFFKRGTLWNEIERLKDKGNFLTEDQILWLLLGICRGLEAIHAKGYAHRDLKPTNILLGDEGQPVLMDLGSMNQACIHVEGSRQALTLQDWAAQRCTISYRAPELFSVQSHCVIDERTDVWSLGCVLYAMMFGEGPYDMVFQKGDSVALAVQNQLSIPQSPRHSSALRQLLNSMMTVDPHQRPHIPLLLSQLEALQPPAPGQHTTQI

Sequence of FLT3 (human), P36888 [ITD] (P36888 whole entry, looked up, change not shown): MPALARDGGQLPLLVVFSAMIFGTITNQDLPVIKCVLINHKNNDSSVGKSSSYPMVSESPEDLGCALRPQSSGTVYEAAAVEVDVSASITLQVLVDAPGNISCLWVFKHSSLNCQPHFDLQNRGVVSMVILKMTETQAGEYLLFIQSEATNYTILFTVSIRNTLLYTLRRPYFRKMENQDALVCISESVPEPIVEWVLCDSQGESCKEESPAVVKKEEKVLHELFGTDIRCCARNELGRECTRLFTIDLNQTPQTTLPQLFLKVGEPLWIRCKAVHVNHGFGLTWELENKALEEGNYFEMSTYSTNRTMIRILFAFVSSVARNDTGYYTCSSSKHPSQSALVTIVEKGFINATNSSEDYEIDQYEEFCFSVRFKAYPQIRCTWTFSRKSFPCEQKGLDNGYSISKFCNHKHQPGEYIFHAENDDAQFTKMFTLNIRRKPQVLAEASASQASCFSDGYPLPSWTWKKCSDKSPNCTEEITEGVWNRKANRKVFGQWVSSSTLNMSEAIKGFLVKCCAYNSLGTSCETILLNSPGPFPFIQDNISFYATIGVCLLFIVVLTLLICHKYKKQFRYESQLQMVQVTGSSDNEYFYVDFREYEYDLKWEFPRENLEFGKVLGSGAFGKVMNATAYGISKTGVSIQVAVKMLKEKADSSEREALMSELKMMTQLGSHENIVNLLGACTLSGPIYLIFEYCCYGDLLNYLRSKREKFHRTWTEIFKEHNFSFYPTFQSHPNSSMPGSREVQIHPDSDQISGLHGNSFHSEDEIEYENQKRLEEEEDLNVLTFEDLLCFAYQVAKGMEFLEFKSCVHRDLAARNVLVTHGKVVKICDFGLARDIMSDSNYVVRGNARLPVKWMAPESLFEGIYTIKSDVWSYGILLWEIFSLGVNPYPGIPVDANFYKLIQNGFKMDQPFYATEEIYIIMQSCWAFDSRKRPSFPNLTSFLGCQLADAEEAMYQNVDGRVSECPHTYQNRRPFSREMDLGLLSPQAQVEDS
Sequence of CDK4 CCND1 (human) (P11802 whole entry, looked up): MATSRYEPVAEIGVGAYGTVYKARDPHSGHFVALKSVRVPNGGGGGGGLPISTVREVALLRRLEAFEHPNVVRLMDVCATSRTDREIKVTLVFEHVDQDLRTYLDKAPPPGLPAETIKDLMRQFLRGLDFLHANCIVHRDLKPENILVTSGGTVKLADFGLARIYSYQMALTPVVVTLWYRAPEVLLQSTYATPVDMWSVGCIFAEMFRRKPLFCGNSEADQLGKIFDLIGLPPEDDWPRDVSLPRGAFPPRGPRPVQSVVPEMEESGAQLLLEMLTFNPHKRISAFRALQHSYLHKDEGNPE
Sequence of CDK4 CCND1 (human) (P24385 whole entry, looked up): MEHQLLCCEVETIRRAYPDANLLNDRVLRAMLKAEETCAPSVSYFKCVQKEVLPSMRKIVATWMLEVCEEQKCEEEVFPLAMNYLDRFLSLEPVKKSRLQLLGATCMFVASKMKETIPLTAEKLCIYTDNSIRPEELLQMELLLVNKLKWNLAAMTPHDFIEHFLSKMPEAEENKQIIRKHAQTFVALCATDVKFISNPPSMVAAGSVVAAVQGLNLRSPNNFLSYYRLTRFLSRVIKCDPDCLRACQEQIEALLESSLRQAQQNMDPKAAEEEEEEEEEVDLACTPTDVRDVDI
Sequence of CDK4 CCND3 (human) (P11802 whole entry, looked up): as the sequence (P11802 whole entry, looked up) above
Sequence of CDK4 CCND3 (human) (P30281 whole entry, looked up): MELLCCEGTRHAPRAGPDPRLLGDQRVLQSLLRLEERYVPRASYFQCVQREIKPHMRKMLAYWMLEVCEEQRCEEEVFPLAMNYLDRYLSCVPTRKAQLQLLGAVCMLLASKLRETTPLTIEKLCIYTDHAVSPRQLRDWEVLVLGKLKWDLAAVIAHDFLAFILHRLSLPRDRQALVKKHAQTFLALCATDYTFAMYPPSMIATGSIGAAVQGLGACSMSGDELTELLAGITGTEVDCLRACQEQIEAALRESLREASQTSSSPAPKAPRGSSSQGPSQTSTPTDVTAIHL
Sequence of PDGFRB (human) (P09619 whole entry, looked up): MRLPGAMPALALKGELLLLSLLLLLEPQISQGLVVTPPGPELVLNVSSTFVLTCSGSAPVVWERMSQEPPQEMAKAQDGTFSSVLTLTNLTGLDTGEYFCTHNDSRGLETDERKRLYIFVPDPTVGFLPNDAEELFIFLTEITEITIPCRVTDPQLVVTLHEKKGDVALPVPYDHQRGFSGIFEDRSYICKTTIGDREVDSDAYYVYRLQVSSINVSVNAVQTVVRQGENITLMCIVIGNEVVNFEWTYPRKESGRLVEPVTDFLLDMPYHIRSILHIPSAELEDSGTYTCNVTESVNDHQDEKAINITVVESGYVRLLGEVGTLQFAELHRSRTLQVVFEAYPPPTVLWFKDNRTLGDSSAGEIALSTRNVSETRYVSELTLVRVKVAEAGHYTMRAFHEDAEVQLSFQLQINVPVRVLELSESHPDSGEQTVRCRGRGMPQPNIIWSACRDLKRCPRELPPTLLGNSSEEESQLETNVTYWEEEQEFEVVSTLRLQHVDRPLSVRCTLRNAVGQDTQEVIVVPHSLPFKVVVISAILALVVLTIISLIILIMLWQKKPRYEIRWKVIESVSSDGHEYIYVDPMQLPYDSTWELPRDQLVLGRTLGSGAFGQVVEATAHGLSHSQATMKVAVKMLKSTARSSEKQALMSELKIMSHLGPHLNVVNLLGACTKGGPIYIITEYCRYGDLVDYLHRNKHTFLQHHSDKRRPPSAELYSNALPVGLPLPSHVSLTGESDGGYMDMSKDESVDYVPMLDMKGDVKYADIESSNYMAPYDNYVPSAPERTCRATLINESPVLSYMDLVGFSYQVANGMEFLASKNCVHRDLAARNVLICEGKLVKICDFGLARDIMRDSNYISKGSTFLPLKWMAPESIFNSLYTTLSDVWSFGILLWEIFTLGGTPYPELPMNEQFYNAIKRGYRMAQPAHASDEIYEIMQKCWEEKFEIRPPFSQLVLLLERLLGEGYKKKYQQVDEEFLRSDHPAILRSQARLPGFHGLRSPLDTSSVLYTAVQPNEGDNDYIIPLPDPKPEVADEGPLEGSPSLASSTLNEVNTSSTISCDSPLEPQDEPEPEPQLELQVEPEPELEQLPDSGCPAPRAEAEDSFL
Sequence of MAP2K5 (human) (Q13163 whole entry, looked up): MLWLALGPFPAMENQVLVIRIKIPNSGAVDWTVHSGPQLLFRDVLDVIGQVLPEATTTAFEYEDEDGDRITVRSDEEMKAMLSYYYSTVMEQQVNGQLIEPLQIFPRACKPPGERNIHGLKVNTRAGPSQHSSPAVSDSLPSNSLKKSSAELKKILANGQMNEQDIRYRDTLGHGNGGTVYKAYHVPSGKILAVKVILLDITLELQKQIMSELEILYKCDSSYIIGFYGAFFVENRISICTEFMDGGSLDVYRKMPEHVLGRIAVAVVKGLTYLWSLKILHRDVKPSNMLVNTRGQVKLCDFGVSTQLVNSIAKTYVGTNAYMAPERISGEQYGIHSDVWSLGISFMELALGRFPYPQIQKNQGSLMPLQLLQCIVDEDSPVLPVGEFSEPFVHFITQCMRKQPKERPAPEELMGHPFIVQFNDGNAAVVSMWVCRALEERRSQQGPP
Sequence of PKN3 (M.tuberculosis) (Q6P5Z2 whole entry, looked up): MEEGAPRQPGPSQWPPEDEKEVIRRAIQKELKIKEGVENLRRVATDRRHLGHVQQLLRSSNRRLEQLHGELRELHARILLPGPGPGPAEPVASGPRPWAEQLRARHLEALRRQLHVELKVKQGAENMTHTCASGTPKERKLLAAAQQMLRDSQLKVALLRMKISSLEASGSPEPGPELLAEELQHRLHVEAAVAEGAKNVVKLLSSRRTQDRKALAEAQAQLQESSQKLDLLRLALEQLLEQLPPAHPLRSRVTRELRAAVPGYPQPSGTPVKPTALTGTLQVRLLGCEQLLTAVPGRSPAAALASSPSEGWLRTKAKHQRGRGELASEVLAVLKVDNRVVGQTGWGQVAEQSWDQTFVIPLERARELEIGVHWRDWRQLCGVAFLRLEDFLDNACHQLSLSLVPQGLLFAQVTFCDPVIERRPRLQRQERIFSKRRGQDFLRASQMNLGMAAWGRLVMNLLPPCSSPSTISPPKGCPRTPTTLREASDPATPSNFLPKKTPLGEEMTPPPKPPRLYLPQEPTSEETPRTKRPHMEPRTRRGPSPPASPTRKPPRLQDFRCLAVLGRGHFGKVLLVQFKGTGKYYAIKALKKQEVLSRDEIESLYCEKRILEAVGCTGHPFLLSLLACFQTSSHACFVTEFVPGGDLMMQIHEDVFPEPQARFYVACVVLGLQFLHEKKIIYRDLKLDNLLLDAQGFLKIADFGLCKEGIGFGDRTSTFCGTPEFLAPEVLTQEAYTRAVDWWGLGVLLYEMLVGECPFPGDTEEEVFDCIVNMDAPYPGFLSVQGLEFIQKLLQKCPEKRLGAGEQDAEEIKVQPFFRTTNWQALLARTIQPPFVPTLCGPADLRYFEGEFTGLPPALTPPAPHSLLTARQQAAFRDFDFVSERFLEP

## Cc1ccc(-c2c(/C=C(\C#N)C(=O)NC(C)C)n(CCCO)c3ncnc(N)c23)cc1
[1]
  residual activity: 100%
[2]
  residual activity: 95%
[3]
  kinase still bound, per cent of control: 68%
[4]
  kinase still bound, per cent of control: 75%
[5]
  Kd: 2300 nM
[6]
  Kd: 45 nM
[7]
  Kd: 2800 nM
[8]
  kinase still bound, per cent of control: 100%
[9]
  Kd: 360 nM
[10]
  Kd: 310 nM
[11]
  Kd: 1.2 nM
[12]
  Kd: 230 nM
